According to US9179678B2, “Substituted [1,2,4]triazoles and substituted tetrazoles as herbicides” (SYNGENTA LIMITED, priority 2012, dated 2015):

Tests used:
Assay type in all cases: in vivo
[1] = tested on: Ipomoea hederacea (IPOHE); assay: Post-emergence glasshouse herbicide test; details: POST Application, 1000 g/h, after 13 days
Description: (§1) Seeds of a variety of test species are sown in standard soil in pots (Alopecurus myosuroides (ALOMY), Setaria faberi (SETFA), Echinochloa crus-galli (ECHCG), Solanum nigrum (SOLNI), Amaranthus retoflexus (AMARE), Ipomoea hederacea (IPOHE)). After cultivation for one day (pre-emergence) or after 8 days cultivation (post-emergence) under controlled conditions in a glasshouse (at 24/16° C., day/night; 14 hours light; 65% humidity), the plants are sprayed with an aqueous spray solution derived from the formulation of the technical active ingredient in acetone/water (50:50) solution containing 0.5% Tween 20 (polyoxyethelyene sorbitan monolaurate, CAS RN 9005-64-5). Compounds ae applied at 1000 g/h. The test plants are then grown in a glasshouse under controlled conditions in a glasshouse (at 24/16° C., day/night; 14 hours light; 65% humidity) and watered twice daily. After 13 days for pre and post-emergence, the test is evaluated for the percentage damage caused to the plant. The biological activities are shown in the following table on a five point scale (5=80-100%; 4=60-79%; 3=40-59%; 2=20-39%; 1=0-19%).

[2] = tested on: Alopecurus myosuroides (ALOMY); assay: Post-emergence glasshouse herbicide test; details: POST Application, 1000 g/h, after 13 days
Description: as §1

[3] = tested on: Echinochloa crus-galli (ECHCG); assay: Post-emergence glasshouse herbicide test; details: POST Application, 1000 g/h, after 13 days
Description: as §1

Solanum nigrum (SOLNI) [4] = assay: Post-emergence glasshouse herbicide test; details: POST Application, 1000 g/h, after 13 days
Description: as §1

[5] = tested on: Amaranthus retoflexus (AMARE); assay: Post-emergence glasshouse herbicide test; details: POST Application, 1000 g/h, after 13 days
Description: as §1

[6] = tested on: Ipomoea hederacea (IPOHE); assay: Pre-emergence glasshouse herbicide test; details: PRE Application, 1000 g/h, after 13 days
Description: as §1

[7] = tested on: Alopecurus myosuroides (ALOMY); assay: Pre-emergence glasshouse herbicide test; details: PRE Application, 1000 g/h, after 13 days
Description: as §1

[8] = tested on: Echinochloa crus-galli (ECHCG); assay: Pre-emergence glasshouse herbicide test; details: PRE Application, 1000 g/h, after 13 days
Description: as §1

Solanum nigrum (SOLNI) [9] = assay: Pre-emergence glasshouse herbicide test; details: PRE Application, 1000 g/h, after 13 days
Description: as §1

[10] = tested on: Amaranthus retoflexus (AMARE); assay: Pre-emergence glasshouse herbicide test; details: PRE Application, 1000 g/h, after 13 days
Description: as §1

Setaria faberi (SETFA) [11] = assay: Pre-emergence glasshouse herbicide test; details: PRE Application, 1000 g/h, after 13 days
Description: as §1

Setaria faberi (SETFA) [12] = assay: Post-emergence glasshouse herbicide test; details: POST Application, 1000 g/h, after 13 days
Description: as §1, with “Compounds ae applied at 1000 g/h.” left out

With `CSc1ccc(-n2c(=O)c(C(=O)Nc3nnnn3C)nc3ccccc32)cc1` [Compound 5.020] the “percentage damage caused to the plant, IPOHE” value [1] was 5 (5=80-100%), the “percentage damage caused to the plant, ALOMY” value [2] was 5 (5=80-100%) and the “percentage damage caused to the plant, ECHCG” value [3] was 5 (5=80-100%). The “percentage damage caused to the plant, SOLNI” value (Solanum nigrum (SOLNI) [4]) was 5 (5=80-100%), the “percentage damage caused to the plant, AMARE” value [5] was 5 (5=80-100%) and the “percentage damage caused to the plant, IPOHE” value [6] was 3 (3=40-59%). For the same molecule, the “percentage damage caused to the plant, ALOMY” value [7] was 1 (1=0-19%), the “percentage damage caused to the plant, ECHCG” value [8] was 3 (3=40-59%) and the “percentage damage caused to the plant, SOLNI” value (Solanum nigrum (SOLNI) [9]) was 5 (5=80-100%). The “percentage damage caused to the plant, AMARE” value [10] was 5 (5=80-100%), the “percentage damage caused to the plant, SETFA” value (Setaria faberi (SETFA) [11]) was 1 (1=0-19%) and the “percentage damage caused to the plant, SETFA” value (Setaria faberi (SETFA) [12]) was 2 (2=20-39%).
In the case of `Cc1cccc(-n2c(=O)c(C(=O)Nc3nnnn3C)nc3ccccc32)c1` [Compound 5.011], the “percentage damage caused to the plant, IPOHE” value [1] is reported as 5 (5=80-100%), the “percentage damage caused to the plant, ALOMY” value [2] is reported as 2 (2=20-39%) and the “percentage damage caused to the plant, ECHCG” value [3] is reported as 4 (4=60-79%). The “percentage damage caused to the plant, SOLNI” value (Solanum nigrum (SOLNI) [4]) was 5 (5=80-100%), the “percentage damage caused to the plant, AMARE” value [5] was 5 (5=80-100%) and the “percentage damage caused to the plant, IPOHE” value [6] was 5 (5=80-100%). The “percentage damage caused to the plant, ALOMY” value [7] was 2 (2=20-39%), the “percentage damage caused to the plant, ECHCG” value [8] was 4 (4=60-79%) and the “percentage damage caused to the plant, SOLNI” value (Solanum nigrum (SOLNI) [9]) was 5 (5=80-100%). For the same molecule, the “percentage damage caused to the plant, AMARE” value [10] was 5 (5=80-100%), the “percentage damage caused to the plant, SETFA” value (Setaria faberi (SETFA) [11]) was 4 (4=60-79%) and the “percentage damage caused to the plant, SETFA” value (Setaria faberi (SETFA) [12]) was 5 (5=80-100%).
For `CCOc1cccc(-n2c(=O)c(C(=O)Nc3nnnn3C)nc3ccccc32)c1` [Compound 5.014], the “percentage damage caused to the plant, IPOHE” value [1] was 5 (5=80-100%), the “percentage damage caused to the plant, ALOMY” value [2] was 3 (3=40-59%) and the “percentage damage caused to the plant, ECHCG” value [3] was 4 (4=60-79%). For the same molecule, the “percentage damage caused to the plant, SOLNI” value (Solanum nigrum (SOLNI) [4]) was 5 (5=80-100%), the “percentage damage caused to the plant, AMARE” value [5] was 5 (5=80-100%) and the “percentage damage caused to the plant, IPOHE” value [6] was 4 (4=60-79%). For the same molecule, the “percentage damage caused to the plant, ALOMY” value [7] was 2 (2=20-39%), the “percentage damage caused to the plant, ECHCG” value [8] was 2 (2=20-39%) and the “percentage damage caused to the plant, SOLNI” value (Solanum nigrum (SOLNI) [9]) was 5 (5=80-100%). For the same molecule, the “percentage damage caused to the plant, AMARE” value [10] was 5 (5=80-100%), the “percentage damage caused to the plant, SETFA” value (Setaria faberi (SETFA) [11]) was 5 (5=80-100%) and the “percentage damage caused to the plant, SETFA” value (Setaria faberi (SETFA) [12]) was 5 (5=80-100%).
`Cn1nnnc1NC(=O)c1cc2cc(F)cnc2n(-c2ccccc2)c1=O` [Compound 6.001] was tested, and the “percentage damage caused to the plant, IPOHE” value [1] was 5 (5=80-100%), the “percentage damage caused to the plant, ALOMY” value [2] was 3 (3=40-59%) and the “percentage damage caused to the plant, ECHCG” value [3] was 5 (5=80-100%). For the same molecule, the “percentage damage caused to the plant, SOLNI” value (Solanum nigrum (SOLNI) [4]) was 5 (5=80-100%), the “percentage damage caused to the plant, AMARE” value [5] was 5 (5=80-100%) and the “percentage damage caused to the plant, IPOHE” value [6] was 4 (4=60-79%). For the same molecule, the “percentage damage caused to the plant, ALOMY” value [7] was 1 (1=0-19%), the “percentage damage caused to the plant, ECHCG” value [8] was 3 (3=40-59%) and the “percentage damage caused to the plant, SOLNI” value (Solanum nigrum (SOLNI) [9]) was 5 (5=80-100%). For the same molecule, the “percentage damage caused to the plant, AMARE” value [10] was 4 (4=60-79%), the “percentage damage caused to the plant, SETFA” value (Setaria faberi (SETFA) [11]) was 1 (1=0-19%) and the “percentage damage caused to the plant, SETFA” value (Setaria faberi (SETFA) [12]) was 3 (3=40-59%).
For `Cn1nnnc1NC(=O)c1nc2ccccc2n(-c2ccc(C(F)(F)F)cc2)c1=O` [Compound 5.019], the “percentage damage caused to the plant, IPOHE” value [1] was 5 (5=80-100%), the “percentage damage caused to the plant, ALOMY” value [2] was 3 (3=40-59%) and the “percentage damage caused to the plant, ECHCG” value [3] was 5 (5=80-100%). For the same molecule, the “percentage damage caused to the plant, SOLNI” value (Solanum nigrum (SOLNI) [4]) was 5 (5=80-100%), the “percentage damage caused to the plant, AMARE” value [5] was 5 (5=80-100%) and the “percentage damage caused to the plant, IPOHE” value [6] was 5 (5=80-100%). The “percentage damage caused to the plant, ALOMY” value [7] was 4 (4=60-79%), the “percentage damage caused to the plant, ECHCG” value [8] was 5 (5=80-100%) and the “percentage damage caused to the plant, SOLNI” value (Solanum nigrum (SOLNI) [9]) was 5 (5=80-100%). The “percentage damage caused to the plant, AMARE” value [10] was 5 (5=80-100%), the “percentage damage caused to the plant, SETFA” value (Setaria faberi (SETFA) [11]) was 5 (5=80-100%) and the “percentage damage caused to the plant, SETFA” value (Setaria faberi (SETFA) [12]) was 5 (5=80-100%).
